Data from article PMC8496261 (RSC Chemical Biology, 2021).
Numbered stars: 1 amine (or outer) side, 2 acyl side, 3 side chain; on linkers, the order of the positions; unused ones are H or OH. Bridge positions count the residues as written; N and C are the ends. Peptide text beside a SMILES is read from it. * marks the point of attachment. FITC = O=C1OC2(c3ccc(O)cc3Oc3cc(O)ccc32)c2ccc(NC(=S)*)cc21; X1 = Cc1c(C[*:1])n2c(C[*:2])c(C)c(=O)n2c1=O; βAla = NCCC(=O)O

How the values were obtained:
PCNA (hPCNA) = PCNA (hPCNA) (Homo sapiens, UniProt P12004); assay: SPR steady state binding affinity for PCNA; settings: for PCNA binding affinity, in words: SPR, 2 compared with peptide 1, 9 compared with peptide 7
[1] = tested on: MDA-MB-468 breast cancer cells (mKate nuclear label); assay: Cell uptake assay imaged by confocal fluorescence microscopy; format: cell-based, human; settings: MDA-MB-468 cells, 10 μM peptide, 24 h, fixed

PCNA (hPCNA), sequence (P12004 whole entry): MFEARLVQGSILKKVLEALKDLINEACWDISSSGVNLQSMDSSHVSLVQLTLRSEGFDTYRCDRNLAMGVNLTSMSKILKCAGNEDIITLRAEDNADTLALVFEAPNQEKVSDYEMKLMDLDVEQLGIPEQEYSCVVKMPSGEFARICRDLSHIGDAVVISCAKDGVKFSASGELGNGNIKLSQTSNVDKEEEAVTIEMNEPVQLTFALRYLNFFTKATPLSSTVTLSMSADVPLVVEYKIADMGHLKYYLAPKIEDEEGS

Compound	PCNA binding affinity, in words (PCNA (hPCNA))	intracellular distribution of peptide fluorescence [1]	Kd (PCNA (hPCNA); SEM)
Ac-RQCSMTCFYHSK-NH2 [Peptide 2]	significantly reduced PCNA affinity	–	–
CSCC[C@@H]1NC(=O)[C@H](CO)NC(=O)[C@@H](NC(=O)[C@H](CCC(N)=O)NC(=O)[C@H](CCCNC(=N)N)NC(=O)CCNC(=S)Nc2ccc3c(c2)C(=O)OC32c3ccc(O)cc3Oc3cc(O)ccc32)CSCc2c(C)c(=O)n3c(=O)c(C)c(n23)CSC[C@@H](C(=O)N[C@@H](Cc2ccccc2)C(=O)N[C@@H](Cc2ccc(O)cc2)C(=O)N[C@@H](Cc2c[nH]cn2)C(=O)N[C@@H](CO)C(=O)N[C@@H](CCCCN)C(N)=O)NC(=O)[C@H]([C@@H](C)O)NC1=O [Peptide 9] ({FITC-βAla}-RQCSMTCFYHSK-NH2; linker 3-7 via X1)	dramatically decreases the binding affinity	both blue and green fluorescence present throughout the cell cytoplasm	–
CSCC[C@H](NC(=O)[C@H](CO)NC(=O)[C@@H](NC(=O)[C@H](CCC(N)=O)NC(=O)[C@@H](N)CCCNC(=N)N)[C@@H](C)O)C(=O)N[C@H](C(=O)N[C@@H](CC(=O)O)C(=O)N[C@@H](Cc1ccccc1)C(=O)N[C@@H](Cc1ccc(O)cc1)C(=O)N[C@@H](Cc1c[nH]cn1)C(=O)N[C@@H](CO)C(=O)N[C@@H](CCCCN)C(N)=O)[C@@H](C)O [Peptide 1] (H-RQTSMTDFYHSK-NH2)	–	–	102 ± 5 nM
